Laboratory results from US20120135009A1, “Cleaved and Phosphorylated CRMP2 as Blood Marker of Inflammatory Diseases of the Central Nervous System” (priority 2009, published 2012).

Test system: Jurkat T-cells
Test: CRMP2 polarization in Jurkat cells adhering to collagen I-coated slides (immunofluorescence)
Type: cell-based
Experimental: The CRMP2 forms, Yes kinase and intermediary filament vimentin were detected by indirect immunofluorescence on Jurkat and primary T-cells adhered to collagen I-coated slides (20 μg/ml) and fixed following treatment (acetone −20° C.; 10 min). Cells were incubated with specific antibody (1 h, 37° C.) then with Alexa 488- or 546-conjugated anti-mouse or anti-rabbit or anti-sheep IgG antibodies (1 h, 37° C.) and examined using the Axioplan II fluorescence microscope (Carl Zeiss). Nuclear counter-staining was performed using a fluorescent DNA intercalant, 4′, 6′-diamidino-2-phenylindole (DAPI, Boehringer Mannheim).
To define a link between chemokines and CRMP2, the inventors first examined the localization of CRMP2 in Jurkat T-cells under CXCL12 signaling. They used two different anti-CRMP2 antibodies (anti-C-ter and anti-pep4) that recognize the full-length and cleaved products of CRMP2. […] This phenomenon of CRMP2 polarization was still observed after 30 minutes of treatment. […] In addition CRMP2 distribution to the uropod was concomitant with the re-localization of vimentin, which was quickly redistributed at the trailing edge of polarizing T-cells.

Row | Molecule | decrease of CXCL12-induced CRMP2 re-localization (Jurkat cells treated with CXCL12 (100 ng/mL) in the presence of AMD3100) | increase of cells with polarized (asymmetrical) CRMP2 distribution (CXCL12 100 ng/mL, 2, 5 or 10 min, versus un-treated Jurkat T-cells)
1 | c1cc(CN2CCCNCCNCCCNCC2)ccc1CN1CCCNCCNCCCNCC1 [AMD3100] | 35% | 
2 | CXCL12: chemokine, stromal-derived-factor-1, ligand of the CXCR4 receptor |  | 1.6 to 2 fold
